Data reported in PMC11204507, “Mechanistic Insights into the Neurotoxicity of 2,5-Dimethoxyphenethylamines (2C) and Corresponding N-(2-methoxybenzyl)phenethylamine (NBOMe) Drugs” (Journal of Xenobiotics, 2024).
Several values for one entry are separate records, joined by “and”; a condition that tells them apart may be missing. Equal values may be shown once.

How the values were obtained:
MAO-A and MAO-B = details: rat model; cited from earlier work
[1] = tested on: differentiated SH-SY5Y cells; experiment: Intracellular calcium levels, Fluo-4 AM probe; format: cell-based, human; details: control 100.0%
Protocol: Calcium is a vital second messenger for almost every cellular process, including cellular signaling, muscle function, neurotransmitter release, membrane function, and apoptosis. Therefore, its levels inside cells are strictly controlled to maintain cellular homeostasis. The intracellular calcium levels were measured using the cell-permeable Fluo-4 AM probe. Inside the cells, Fluo-4 AM is cleaved to its active and fluorescent form—Fluo-4—which has a high affinity for calcium ions (Ca^2⁺). Thus, its fluorescence emission is directly proportional to the concentration of calcium ions in the intracellular environment.
Therefore, the SH-SY5Y cells were seeded onto 96-well plates (25,000 cells/cm^2) following the previously described seeding and differentiation protocol. […] The average value for negative control (EGTA-treated cells) was subtracted from every other condition and then the minimum average value was subtracted from the maximum average value for every other condition. The results are presented as a percentage relative to the control cells (0 µM). A minimum of 5 independent experiments were conducted in triplicate.

[2] = drug at its EC50, immediately after exposure

CCSc1cc(OC)c(CCN)cc1OC.Cl [2C-T-2, 2-(4-(ethylthio)-2,5-dimethoxyphenyl)ethan-1-aminium chloride]
deamination by MAO-A and MAO-B (MAO-A and MAO-B): both isoenzymes can catalyze the deamination

CCCSc1cc(OC)c(CCN)cc1OC.Cl [2C-T-7, 2-(2,5-dimethoxy-4-(propylthio)phenyl)ethan-1-aminium chloride]
Ca2+ intracellular levels, % of control cells ([1]; drug at its EC20, immediately after exposure): 129.9%
Ca2+ intracellular levels, % of control cells [1, 2]: 146.5%
deamination by MAO-A and MAO-B (MAO-A and MAO-B): both isoenzymes can catalyze the deamination

CCCSc1cc(OC)c(CCNCc2ccccc2OC)cc1OC.Cl [25T7-NBOMe, 2-(2,5-dimethoxy-4-(propylthio)phenyl)-N-(2-methoxybenzyl)ethan-1-aminium chloride]
Ca2+ intracellular levels, % of control cells [1, 2]: > 300% and 320.9%
